Experimental data: US20250136576A1, “Heterocyclic Compounds and Uses Thereof” (ACEA Therapeutics, Inc., priority 2021, published 2025)
Read-outs that look alike come from different tables or passages of the source.

Columns and labels:
KM12-luc cells = assay: Cell proliferation and growth inhibition assay (CCK-8) in KM12-luc; type: cell-based; conditions: KM12-luc cells, treated with test compounds for 72 hrs, CCK-8 viability, read-out: NTRK IC50 in KM12-luc
In short: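 IC50 values were fitted by sigmoidal dose-response non-linear regression of CCK-8 OD450 absorbance after 1-4 hrs with reagent. Culture media were IMDM for MV-4-11, RPMI 1640 for H1975 and DMEM for KM12-luc, each with 10% FBS at 37 °C, 5% CO2.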

H1975 cells = assay: Cell proliferation and growth inhibition assay (CCK-8) in H1975; type: cell-based; conditions: treated with test compounds for 72 hrs, CCK-8 viability, read-out: EGFR IC50 in H1975
Experimental: MV-4-11 and H1975 cells were obtained from the American Type Culture Collection and KM12-luc cells were obtained from JCRB Cell Bank. All cell lines were maintained at 37° C. with 5% C02, in media supplemented with 10% fetal bovine serum and penicillin (100 units/mL) and streptomycin (100 μg/mL). MV-4-11 cells were maintained in Iscove's Modified Dubecco's Medium, H1975 cells were cultured with RPMI 1640 media, and KM12-luc cells were maintained in Dulbecco's Modification of Eagle's Medium. CCK-8 reagent was obtained from Yeasen.
Cell proliferation was assessed by CCK-8 assay (Yeasen) per the manufacturer's instructions. The MV-4-11 (AML), H1975, and KM12-luc cells were seeded at 30,000, 3,000 and 2,500 cells per well onto 96-well plates, and after a 24 h incubation, the cells were treated with test compounds for 72 hrs. Cell viability was assayed by incubating the cells with CCK-8 reagent for 1-4 hrs. Absorbance was measured at OD450 using the Beckman DTX880. The data was calculated using GraphPad Prism version 6.01. The IC50 values were fitted using a non-linear regression model with a sigmoidal dose response.

## CC(=O)Nc1cc(Nc2ncc(C(F)(F)F)c(-c3c[nH]c4cccc(F)c34)n2)ccc1N(C)CCN(C)C [Compound 316, N-(2-((2-(dimethylamino)ethyl)(methyl)amino)-5-((4-(4-fluoro-1H-indol-3-yl)-5-(trifluoromethyl)pyrimidin-2-yl)amino)phenyl)acetamide]
KM12-luc cells; KM12-Luc, 72 h
  IC50: 0.0216 µM
H1975 cells; Homo sapiens, NCI-H1975, 72 h
  IC50: 0.477 µM

## COc1cccc2c(-c3nc(Nc4ccc(N5CC[C@@H](N(C)C)C5)c(NC(C)=O)c4)ncc3C(F)(F)F)cn(C)c12 [Compound R-389, (R)—N-(2-(3-(dimethylamino)pyrrolidin-1-yl)-5-((4-(7-methoxy-1-methyl-1H-indol-3-yl)-5-(trifluoromethyl)pyrimidin-2-yl)amino)phenyl)acetamide]
KM12-luc cells; KM12-Luc, 72 h
  IC50: 0.0248 µM
H1975 cells; Homo sapiens, NCI-H1975, 72 h
  IC50: 0.94 µM

## CC(=O)Nc1cc(Nc2ncc(C(F)(F)F)c(-c3cn(C)c4c(C)cccc34)n2)ccc1N1CC[C@@H](N(C)C)C1 [Compound R-373, (R)—N-(5-((4-(1,7-dimethyl-1H-indol-3-yl)-5-(trifluoromethyl)pyrimidin-2-yl)amino)-2-(3-(dimethylamino)pyrrolidin-1-yl)phenyl)acetamide]
KM12-luc cells; KM12-Luc, 72 h
  IC50: 0.0228 µM
H1975 cells; Homo sapiens, NCI-H1975, 72 h
  IC50: 0.923 µM

## COc1cccc2c(-c3nc(Nc4ccc(N5CC[C@H](N(C)C)C5)c(NC(C)=O)c4)ncc3Cl)cn(C)c12 [Compound S-435, (S)—N-(5-(5-chloro-4-(7-methoxy-1-methyl-1H-indol-3-yl)pyrimidin-2-ylamino)-2-(3-(dimethylamino)pyrrolidin-1-yl)phenyl)acetamide]
KM12-luc cells; KM12-Luc, 72 h
  IC50: 0.0481 µM
H1975 cells; Homo sapiens, NCI-H1975, 72 h
  IC50: 1.56 µM

## CC(=O)Nc1cc(Nc2ncc(Cl)c(-c3c[nH]c4c(C)cccc34)n2)ccc1N(C)CCN(C)C [Compound 423, N-(5-((5-chloro-4-(7-methyl-1H-indol-3-yl)pyrimidin-2-yl)amino)-2-((2-(dimethylamino)ethyl)(methyl)amino)phenyl)acetamide]
KM12-luc cells; KM12-Luc, 72 h
  IC50: 0.0047 µM
H1975 cells; Homo sapiens, NCI-H1975, 72 h
  IC50: 0.0665 µM

## COc1cnc(Nc2ccc(N3CC[C@H](N(C)C)C3)c(NC(C)=O)c2)nc1-c1c[nH]c2c(F)cccc12 [Compound S-280, (S)—N-(2-(3-(dimethylamino)pyrrolidin-1-yl)-5-((4-(7-fluoro-1H-indol-3-yl)-5-methoxypyrimidin-2-yl)amino)phenyl)acetamide]
KM12-luc cells; KM12-Luc, 72 h
  IC50: 0.0146 µM
H1975 cells; Homo sapiens, NCI-H1975, 72 h
  IC50: 1.25 µM

## CCC(=O)Nc1cccc(Nc2ncc(F)c(Nc3ccc(N4CCN(C(C)=O)CC4)cc3OC)n2)c1 [Compound 156, N-(3-((4-((4-(4-acetylpiperazin-1-yl)-2-methoxyphenyl)amino)-5-fluoropyrimidin-2-yl)amino)phenyl)propionamide]
KM12-luc cells; KM12-Luc, 72 h
  IC50: 0.37 µM
H1975 cells; Homo sapiens, NCI-H1975, 72 h
  IC50: 2.79 µM

## COc1cccc2c(-c3nc(Nc4ccc(N5CC[C@@H](N(C)C)C5)c(NC(C)=O)c4)ncc3Cl)cn(C)c12 [Compound R-435, (R)—N-(5-(5-chloro-4-(7-methoxy-1-methyl-1H-indol-3-yl)pyrimidin-2-ylamino)-2-(3-(dimethylamino)pyrrolidin-1-yl)phenyl)acetamide]
KM12-luc cells; KM12-Luc, 72 h
  IC50: 0.0319 µM
H1975 cells; Homo sapiens, NCI-H1975, 72 h
  IC50: 1.04 µM

## CC(=O)Nc1cc(Nc2ncc(C(F)(F)F)c(-c3cn(C)c4ccccc34)n2)ccc1N(C)CCN(C)C [Compound 296, N-(2-((2-(dimethylamino)ethyl)(methyl)amino)-5-((4-(1-methyl-1H-indol-3-yl)-5-(trifluoromethyl)pyrimidin-2-yl)amino)phenyl)acetamide]
KM12-luc cells
  IC50: 0.0107 µM
H1975 cells; Homo sapiens, NCI-H1975, 72 h
  IC50: 1.07 µM

## CC(=O)Nc1cc(Nc2ncc(C(F)(F)F)c(-c3cn(C)c4c(C)cccc34)n2)ccc1N(C)CCN(C)C [Compound 368, N-(5-((4-(1,7-dimethyl-1H-indol-3-yl)-5-(trifluoromethyl)pyrimidin-2-yl)amino)-2-((2-(dimethylamino)ethyl)(methyl)amino)phenyl)acetamide]
KM12-luc cells; KM12-Luc, 72 h
  IC50: 0.0229 µM
H1975 cells; Homo sapiens, NCI-H1975, 72 h
  IC50: 0.356 µM

## CCC(=O)Nc1cc(Nc2nc(-c3cn(C)c4ccccc34)c3cc[nH]c3n2)ccc1N(CC)CCN(C)C [Compound 212b, N-(2-((2-(dimethylamino)ethyl)(ethyl)amino)-5-((4-(1-methyl-1H-indol-3-yl)-7H-pyrrolo[2,3-d]pyrimidin-2-yl)amino)phenyl)propionamide]
KM12-luc cells; KM12-Luc, 72 h
  IC50: 0.037 µM
H1975 cells; Homo sapiens, NCI-H1975, 72 h
  IC50: 1.66 µM

## COc1cnc(Nc2ccc(N3CC[C@H](N(C)C)C3)c(NC(C)=O)c2)nc1-c1c[nH]c2c(OC)cccc12 [Compound S-288, (S)—N-(2-(3-(dimethylamino)pyrrolidin-1-yl)-5-((5-methoxy-4-(7-methoxy-1H-indol-3-yl)pyrimidin-2-yl)amino)phenyl)acetamide]
KM12-luc cells; KM12-Luc, 72 h
  IC50: 0.0169 µM
H1975 cells; Homo sapiens, NCI-H1975, 72 h
  IC50: 1.26 µM

## CCN(CCN(C)C)c1ccc(Nc2ncc(Cl)c(-c3c[nH]c4ccccc34)n2)cc1NC(C)=O [Compound 442, N-(5-((5-chloro-4-(1H-indol-3-yl)pyrimidin-2-yl)amino)-2-((2-(dimethylamino)ethyl)(ethyl)amino)phenyl)acetamide]
KM12-luc cells; KM12-Luc, 72 h
  IC50: 0.0064 µM
H1975 cells; Homo sapiens, NCI-H1975, 72 h
  IC50: 0.328 µM

## COc1cccc2c(-c3nc(Nc4ccc(N5CC[C@H](N(C)C)C5)c(NC(C)=O)c4)ncc3C(F)(F)F)cn(C)c12 [Compound S-389, (S)—N-(2-(3-(dimethylamino)pyrrolidin-1-yl)-5-((4-(7-methoxy-1-methyl-1H-indol-3-yl)-5-(trifluoromethyl)pyrimidin-2-yl)amino)phenyl)acetamide]
KM12-luc cells; KM12-Luc, 72 h
  IC50: 0.0235 µM
H1975 cells; Homo sapiens, NCI-H1975, 72 h
  IC50: 0.898 µM

## CC(=O)Nc1cc(Nc2ncc(C(F)(F)F)c(-c3c[nH]c4c(C)cccc34)n2)c(F)cc1N(C)CCN(C)C [Compound 362, N-(2-((2-(dimethylamino)ethyl)(methyl)amino)-4-fluoro-5-((4-(7-methyl-1H-indol-3-yl)-5-(trifluoromethyl)pyrimidin-2-yl)amino)phenyl)acetamide]
KM12-luc cells; KM12-Luc, 72 h
  IC50: 0.0326 µM
H1975 cells; Homo sapiens, NCI-H1975, 72 h
  IC50: 0.0186 µM

## CC(=O)Nc1cc(Nc2ncc(C(F)(F)F)c(-c3c[nH]c4ccccc34)n2)ccc1NCCN(C)C [Compound 303a, N-(5-((4-(1H-indol-3-yl)-5-(trifluoromethyl)pyrimidin-2-yl)amino)-2-((2-(dimethylamino)ethyl)amino)phenyl)acetamide]
KM12-luc cells; KM12-Luc, 72 h
  IC50: 0.0191 µM
H1975 cells; Homo sapiens, NCI-H1975, 72 h
  IC50: 0.109 µM

## CCC(=O)Nc1cc(Nc2ncc(C(F)(F)F)c(-c3c[nH]c4ccccc34)n2)ccc1N(C)CCN(C)C [Compound 298, N-(5-((4-(1H-indol-3-yl)-5-(trifluoromethyl)pyrimidin-2-yl)amino)-2-((2-(dimethylamino)ethyl)(methyl)amino)phenyl)propionamide]
KM12-luc cells; KM12-Luc, 72 h
  IC50: 0.044 µM
H1975 cells; Homo sapiens, NCI-H1975, 72 h
  IC50: 0.289 µM

## CC(=O)Nc1cc(Nc2ncc(Cl)c(-c3c[nH]c4c(F)cccc34)n2)ccc1N(C)CCN(C)C [Compound 412, N-(5-((5-chloro-4-(7-fluoro-1H-indol-3-yl)pyrimidin-2-yl)amino)-2-((2-(dimethylamino)ethyl)(methyl)amino)phenyl)acetamide]
KM12-luc cells; KM12-Luc, 72 h
  IC50: 0.0084 µM
H1975 cells; Homo sapiens, NCI-H1975, 72 h
  IC50: 0.38 µM

## CC(=O)Nc1cc(Nc2nc(-c3c[nH]c4ccccc34)c3cc[nH]c3n2)cc(F)c1N(C)CCN(C)C [Compound 248a, N-(5-((4-(1H-indol-3-yl)-7H-pyrrolo[2,3-d]pyrimidin-2-yl)amino)-2-((2-(dimethylamino)ethyl)(methyl)amino)-3-fluorophenyl)acetamide]
KM12-luc cells; KM12-Luc, 72 h
  IC50: 0.0128 µM
H1975 cells
  IC50: 0.442 µM

## COc1cccc2c(-c3nc(Nc4cc(NC(C)=O)c(N(C)CCN(C)C)cc4F)ncc3C(F)(F)F)c[nH]c12 [Compound 378, N-(2-((2-(dimethylamino)ethyl)(methyl)amino)-4-fluoro-5-((4-(7-methoxy-1H-indol-3-yl)-5-(trifluoromethyl)pyrimidin-2-yl)amino)phenyl)acetamide]
KM12-luc cells; KM12-Luc, 72 h
  IC50: 0.0434 µM
H1975 cells; Homo sapiens, NCI-H1975, 72 h
  IC50: 0.0261 µM

## CC(=O)Nc1cc(Nc2ncc(Cl)c(-c3c[nH]c4ccccc34)n2)cc(F)c1N1CCC(N(C)C)C1 (stereo not drawn) [Compound 392, N-(5-((5-chloro-4-(1H-indol-3-yl)pyrimidin-2-yl)amino)-2-(3-(dimethylamino)pyrrolidin-1-yl)-3-fluorophenyl)acetamide]
KM12-luc cells; KM12-Luc, 72 h
  IC50: 0.0181 µM
H1975 cells; Homo sapiens, NCI-H1975, 72 h
  IC50: 0.862 µM

## CC(=O)Nc1cc(Nc2ncc(Cl)c(-c3cn(C)c4ccccc34)n2)ccc1NCCN(C)C [Compound 400a, N-(5-((5-chloro-4-(1-methyl-1H-indol-3-yl)pyrimidin-2-yl)amino)-2-((2-(dimethylamino)ethyl)amino)phenyl)acetamide]
KM12-luc cells; KM12-Luc, 72 h
  IC50: 0.042 µM
H1975 cells; Homo sapiens, NCI-H1975, 72 h
  IC50: 1.01 µM

## CCN(CCN(C)C)c1cc(F)c(Nc2nc(-c3cn(C)c4ccccc34)c3cc[nH]c3n2)cc1NC(C)=O [Compound 201, N-(2-((2-(dimethylamino)ethyl)(ethyl)amino)-4-fluoro-5-((4-(1-methyl-1H-indol-3-yl)-7H-pyrrolo[2,3-d]pyrimidin-2-yl)amino)phenyl)acetamide]
KM12-luc cells; KM12-Luc, 72 h
  IC50: 0.444 µM
H1975 cells; Homo sapiens, NCI-H1975, 72 h
  IC50: 1.1 µM

## CC(=O)Nc1cc(Nc2ncc(C(F)(F)F)c(-c3cn(C)c4c(C)cccc34)n2)ccc1N1CC[C@H](N(C)C)C1 [Compound S-373, (S)—N-(5-((4-(1,7-dimethyl-1H-indol-3-yl)-5-(trifluoromethyl)pyrimidin-2-yl)amino)-2-(3-(dimethylamino)pyrrolidin-1-yl)phenyl)acetamide]
KM12-luc cells; KM12-Luc, 72 h
  IC50: 0.0211 µM
H1975 cells; Homo sapiens, NCI-H1975, 72 h
  IC50: 0.461 µM
